Test results published in article PMC6156138, “Combination of a Latency-Reversing Agent With a Smac Mimetic Minimizes Secondary HIV-1 Infection in vitro” (Frontiers in Microbiology, 2018).
Where two headings read alike, the source gives them in different places.

Legend:
Format in all cases: cell-based
[1] = test system: latent HIV-1-infected U1 cells; assay: HIV reactivation from latent cells: supernatant p24 antigen; conditions: day 2, single drug (Figure 1B)
Description: (§1) The reactivation of HIV-1 from latently infected cells was determined by the measurement of supernatant p24 antigen and intracellular HIV-1 RNA levels. ACH-2 cells or U1 cells (5 × 10^5 cells/mL) were placed in 96-well plates, and then the cells were incubated with different concentrations of drugs for 24 h to extract RNA and for 48 h to collect the supernatant. The increase in supernatant p24 antigen levels was measured using […] G1200 (Fujirebio, Tokyo, Japan). The total RNA was extracted using an RNeasy Mini Kit (Qiagen, Hilden, Germany), following the manufacturer’s protocols. The cDNA was synthesized using PrimeScript RT Master Mix (Takara Bio, Shiga, Japan), and quantitative real-time PCR analyses for the intracellular HIV-1 RNA were carried out with PowerUp^TM SYBR Green Master Mix (Applied Biosystems, Foster City, CA, United States). The oligonucleotide primers used were as follows: 5′-[…]-3′ (forward) and 5′-[…]-3′ (reverse) for HIV-RNA detection; 5′-[…]-3′ (forward) and 5′-[…]-3′ (reverse) for β-actin. The HIV-RNA expressions were normalized with that of β-actin, which was indicated as the relative quantity, and the increase in HIV-1 RNA levels in the presence of a drug was compared with that without a drug.
(§2) FIGURE 1 (A,B) The increase in viral production from ACH-2 cells (A) and U1 cells (B) was examined by supernatant p24 antigen levels on day 2. (C,D) Changes in the intracellular HIV-1 mRNA levels due to treatment with these drugs in ACH-2 cells (C) and U1 cells (D) after 24 h of incubation.

[2] = test system: latent HIV-1-infected ACH-2 cells; assay: as above; conditions: ACH-2 cells; for viral production (supernatant p24 antigen levels): day 2, single drug (Figure 1A)
Description: as §1, §2
FIGURE 2 (A) Effect of birinapant when combined with TNF-α. The supernatant p24 levels with birinapant (1∼100 nM) in ACH-2 cell culture on day 2 are shown in white bars, and p24 values with birinapant when combined with TNF-α (10 ng/ml) are shown in black bars. (B) HIV-1 production from ACH-2 cells when reactivated by PEP005 (0.05∼50 nM) for 24 h. (C) Changes in the living cell numbers in the presence of drug(s) on days 1, 3, and 5.

OM10.1 = assay: Cytotoxicity assay (Cytotoxicity LDH Assay Kit); conditions: OM10.1 cells, 24 h; read-out: CC50 ± SD against OM10.1
Description: (§3) To determine the cytotoxicity induced by LRAs and its related compounds, cells (5 × 10^5 cells/mL) were cultured in the presence or absence of LRA. After 24 h, cytotoxicity assays were performed using a Cytotoxicity LDH Assay Kit (Dojindo, Kumamoto, Japan) according to the manufacturer’s instructions. The number of living cells with the drug was measured and compared with those without the drug, and data are shown as percentage (%) of control.

A3.01 = assay: Cytotoxicity assay (Cytotoxicity LDH Assay Kit); conditions: A3.01 cells, 24 h; read-out: CC50 ± SD against A3.01
Description: as §3

HL-60 = assay: Cytotoxicity assay (Cytotoxicity LDH Assay Kit); conditions: HL-60 cells, 24 h; read-out: CC50 ± SD against HL-60
Description: as §3

ACH-2 = assay: Cytotoxicity assay (Cytotoxicity LDH Assay Kit); conditions: ACH-2 cells, 24 h; read-out: CC50 ± SD against ACH-2
Description: as §3

U937 = assay: Cytotoxicity assay (Cytotoxicity LDH Assay Kit); conditions: U937 cells, 24 h; read-out: CC50 ± SD against U937
Description: as §3

U1 = assay: Cytotoxicity assay (Cytotoxicity LDH Assay Kit); conditions: U1 cells, 24 h; read-out: CC50 ± SD against U1
Description: as §3

J1.1 = assay: Cytotoxicity assay (Cytotoxicity LDH Assay Kit); conditions: J1.1 cells, 24 h; read-out: CC50 ± SD against J1.1
Description: as §3

Jurkat = assay: Cytotoxicity assay (Cytotoxicity LDH Assay Kit); conditions: Jurkat cells, 24 h; read-out: CC50 ± SD against Jurkat
Description: as §3

HIV-1 NL4-3 = assay: Antiviral assay, HIV-1 NL4-3 in MT-4 cells; conditions: MT-4 cells, cultured for 12 days, single drug
Description: as §3, with “Antiviral assays using wild type HIV-1 (HIV-1 NL4-3) cells and MT-4 cells were conducted as previously described ([Maeda et al., 2014]; [Takamatsu et al., 2015]). To” for “To”
Supplementary file Data_Sheet_1.PDF: FIGURE S1 The combined effect of an RT inhibitor (EFdA/MK-8591) ([Nakata et al., 2007]; [Kawamoto et al., 2008]; [Maeda et al., 2014]) and PKC activator (PEP005) on the replication of HIV-1 NL4-3 in MT-4 cells. MT-4 cells were infected with HIV-1 NL4-3 in the presence or absence of drug(s), cultured for 12 days, and the supernatant p24 levels were measured. Click here for additional data file.

[3] = Cytotoxicity assay (Cytotoxicity LDH Assay Kit); conditions: human
Description: as §3

cIAP = assay: Determination of cIAP expression (western blotting); conditions: ACH-2 cells, 24 h; birinapant 50 nM, PEP005 5 nM, TNF-α 10 ng/ml
Description: ACH-2 cells (1 × 10^6 cells/ml) were treated with different concentrations of the drug for 24 h, and the cells were washed twice with PBS. Cells were homogenized by CelLytic M Cell Lysis Reagent (Sigma-Aldrich, St. Louis, MO, United States) containing a protease inhibitor cocktail (Nacalai Tesque, Kyoto, Japan) and were incubated at room temperature (RT) for 15 min. The cells were then centrifuged at 13,000 rpm for 15 min, and the supernatant of the whole cell lysate was collected. The bicinchoninic acid (BCA) protein assay (Thermo Scientific, Rockford, IL, United States) was used to measure the actual protein amount in the treated and untreated cells. The protein extracts were separated through sodium dodecyl sulfate polyacrylamide gel electrophoresis (SDS-PAGE) and then were blotted onto a Trans Blot Turbo polyvinylidene difluoride (PVDF) membrane (Bio-Rad, Hercules, CA, United States). Protein bands were visualized using 3,3′,5,5′-tetramethylbenzidine (TMB) solution (Wako Pure Chemical). The sources of the antibodies were as follows: c-IAP1 (D5G9), c-IAP2 (58C7), and XIAP (3B6) were purchased from Cell Signaling Technology (Danvers, MA, United States); β-actin (C4) was purchased from Santa Cruz Biotechnology.
Supplementary file Data_Sheet_5.PDF: FIGURE S5 Western blotting (WB) analysis for IAP family proteins in ACH-2 cells. Cells were exposed to birinapant (50 nM) in the presence or absence of PEP005 (5 nM), with TNF-α (10 ng/ml) co-treatment for 24 h, and cell lysates were used for WB analysis. Click here for additional data file.

[4] = A3.01 cells, read-out: CC50 ± SD against A3.01
[5] = ACH-2 cells, read-out: CC50 ± SD against ACH-2
[6] = HL-60 cells, read-out: CC50 ± SD against HL-60
[7] = J1.1 cells, read-out: CC50 ± SD against J1.1
[8] = Jurkat cells, read-out: CC50 ± SD against Jurkat
[9] = OM10.1 cells, read-out: CC50 ± SD against OM10.1
[10] = U1 cells, read-out: CC50 ± SD against U1
[11] = U937 cells, read-out: CC50 ± SD against U937

In the case of FC(F)(F)Oc1ccc2nc(-c3ccc(OCCOCCOc4ccc(-c5nc6ccc(OC(F)(F)F)cc6[nH]5)nc4)cn3)[nH]c2c1 [AI-10-49], the “viral production (supernatant p24 antigen levels)” value (“viral production” below) [1] is reported as “failed to increase the p24 levels”, the “viral production” value [2] is reported as “failed to increase the p24 levels” and the CC50 (OM10.1) is reported as > 100 µM. The CC50 (A3.01) was > 100 µM, the CC50 (HL-60) was > 100 µM and the CC50 (ACH-2) was 41 ± 10 µM. For the same molecule, the CC50 (U937) was > 100 µM, the CC50 (U1) was > 100 µM and the CC50 (J1.1) was > 100 µM. For the same molecule, the CC50 (Jurkat) was 1100 ± 70 nM.

For C#C[C@]1(CO)O[C@@H](n2cnc3c(N)nc(F)nc32)C[C@@H]1O [EFdA/MK-8591, 4′-ethynyl-2-fluoro-2′-deoxyadenosine], the “replication of HIV-1 NL4-3 (supernatant p24)” value (HIV-1 NL4-3) was “potently inhibited the replication”.

For CCCCOc1nc(N)c2c(n1)N(Cc1cccc(CN3CCCC3)c1)CC(=O)N2 [GS-9620], the “viral production” value [1] was “failed to increase the p24 levels”, the “viral production” value [2] was “failed to increase the p24 levels” and the CC50 at 24 h [3, 4] was > 100 µM. For the same molecule, the CC50 at 24 h [3, 5] was > 100 µM, the CC50 at 24 h [3, 6] was > 100 µM and the CC50 at 24 h [3, 7] was 35 ± 1.3 µM. The CC50 at 24 h [3, 8] was 23 ± 0.3 µM, the CC50 at 24 h [3, 9] was > 100 µM and the CC50 at 24 h [3, 10] was > 100 µM. The CC50 at 24 h [3, 11] was > 100 µM.

For CCNC(=O)C[C@@H]1N=C(c2ccc(Cl)cc2)c2cc(OC)ccc2-n2c(C)nnc21 [GSK525762A], the “viral production” value [1] was “increased viral production” and the “viral production” value [2] was “increased viral production”.

In the case of Cc1sc2c(c1C)C(c1ccc(Cl)cc1)=N[C@@H](CC(=O)OC(C)(C)C)c1nnc(C)n1-2 [JQ-1], the “viral production” value [1] is reported as “increased viral production” and the “viral production” value [2] is reported as “increased viral production”.

For O=C(CCCCCCC(=O)Nc1ccccc1)NO [SAHA], the “viral production” value [1] was “increased viral production”, the “viral production” value [2] was “increased viral production” and the CC50 at 24 h [3, 4] was > 100 µM. For the same molecule, the CC50 at 24 h [3, 5] was 9 ± 1.2 µM, the CC50 at 24 h [3, 6] was > 100 µM and the CC50 at 24 h [3, 7] was > 100 µM. For the same molecule, the CC50 at 24 h [3, 8] was 90 ± 2 µM, the CC50 at 24 h [3, 9] was > 100 µM and the CC50 at 24 h [3, 10] was > 100 µM. The CC50 at 24 h [3, 11] was > 100 µM.

For Ro5-3335, the “viral production” value [1] was “failed to increase the p24 levels”, the “viral production” value [2] was “failed to increase the p24 levels” and the CC50 (OM10.1) was > 100 µM. For the same molecule, the CC50 (A3.01) was > 100 µM, the CC50 (HL-60) was > 100 µM and the CC50 (ACH-2) was > 100 µM. The CC50 (U937) was > 100 µM, the CC50 (U1) was > 100 µM and the CC50 (J1.1) was > 100 µM. The CC50 (Jurkat) was > 100000 nM.

For TNF-α, the “cIAP expression (western blotting)” value (cIAP) was “upregulation of cIAP-1 (and cIAP-2)”, the “increase of supernatant HIV-1 (p24) levels compared with unstimulated cells” value ([2]; TNF-α 10 ng/ml, day 2 (Figure 2A)) was > 20 fold and the “supernatant HIV-1 p24 levels” value ([2]; after 24 h, PEP005 5 nM and higher (Figure 2B)) was “reactivated and increased the supernatant HIV-1 p24 levels”.
